From patent publication US20050233413A1, “Neuroprotective polypeptides and methods of use” (priority 2002, published 2005)
Read-outs that look alike come from different tables or passages of the source. Where a SMILES comes first, the peptide text is derived from it. Where no end group is shown, it is not given here. [ ]: non-standard residue; d: D form.

Tests used:
[1] = tested on: V642I-APP, NL-APP, M146L-PS1, N141I-PS2 holoprotein expression in F11 cells; assay: Immunoblot analysis of transfected FAD gene expression; type: cell-based, rat/mouse hybrid; conditions: F11 cells treated with peptide
Experimental: Immunoblot analysis was performed as described. For the analysis of transfected FAD gene expression, lysates (20 μg/lane) from cells transfected with each FAD gene (V642I-APP, NL-APP, M146L-PS1, N141I-PS2) were submitted to SDS-PAGE and were electrically blotted to a PVDF sheet. After blocking, the sheet was soaked with antibodies [for APP mutants: 5 μg/ml 22C11 (CHEMICON, Temecula, Calif.); for PS1 mutant: 1/2000 of anti-PS1 N-terminus antibody (CHEMICON) for PS2 mutant: 1/500 of anti-PS2 antibody (Cell Signaling Technology, Beverly, Mass.)] and then with HRP-labeled secondary antibodies. The antigenic bands were visualized by ECL (Amersham Pharmacia Biotech, Uppsala, Sweden).

[2] = tested on: F11 cells transfected with V642I-APP, NL-APP, M146L-PS1 or N141I-PS2 cDNA; type: cell-based, rat/mouse hybrid; conditions: for concentration of full cytoprotection against FAD genes / IC50: each of V642I-APP; for IC50: read-out: IC50 of suppression of neuronal cell death by FAD genes
Excerpt: (§1) F11 cells, the hybrid of a rat embryonic-day-13 primary cultured primary neuron and a mouse neuroblastoma cell, are one of the best models for primary cultured neurons as they carry representative characteristics of primary neurons, such as generation of action potentials without differentiation by NGF [22]. They have been used in various studies of is neuronal functions. Using these cells, the underlying mechanisms for cytotoxicity by V642I-APP have well been analyzed. Cytotoxicity by V642 mutants of APP has also been confirmed in multiple different systems. F11 cells were grown in Ham's F-12 (GibcoBRL, Gaithersburg, Md.) plus 18% fetal bovine serum (FBS; Hyclone, Logan, Utah) and antibiotics, as described previously. F11 cells (7×10^4 cell/well in a 6-well plate cultured in Ham's F-12 plus 18% FBS for 12-16 hr) were transfected with plasmids encoding FAD genes by lipofection [FAD cDNA 2 μg, LipofectAMINE 4 μl, PLUS reagent 8 μl (GibcoBRL)] in the absence of serum for 3 hr, and were incubated with Ham's F-12 plus 18% FBS for 2 hr. Then, culture media were changed to Ham's F-12 plus 10% FBS with or without HN peptides, and cells were cultured for an additional 67 hr. Seventy-two hr after transfection, cell mortality was measured by Trypan blue exclusion assay, performed as follows. Cells were suspended by pipetting gently, and 50 μl of 0.4% (finally 0.08%) Trypan blue solution (Sigma, St Louis, Mo.) was mixed with 200 μl of the cell suspension at room temperature. Stained cells were counted within 3 min after the mixture with Trypan blue solution.

[3] = tested on: Aβ and four FAD genes (V642I-APP, NL-APP, M146L-PS1, and N141I-PS2); type: cell-based; conditions: for Full protection (minimal concentration that exerted full cytoprotection): Table 5, marked *
Excerpt: as §1
(§2) The primary culture of mouse cortical neurons was performed in poly-L-lysine-coated 24-well plates or 96-well plates (Sumitomo Bakelite, Akita, Japan), in the absence of serum and the presence of N2 supplement, as described previously. The purity of neurons by this method was >98%. Prepared neurons (for neurons seeded in 96-well plates: 2.5×10^4 or 5×10^4 cells/well, 100 μl culture medium/well; for neurons seeded in 24-well plates: 1.25×10^5 cells/well, 250 μl culture medium/well) were preincubated with or without 10 μM (in case for the experiment with 10 μM HN) synthetic HN for 16 hr, and treated with 25 μM Aβ in the presence or absence of 10 μM HN for 72 hr, respectively. As primary neurons were vulnerable to transient dryness during medium exchange, we treated neurons with 25 μM Aβ as follows. First, a half volume (50 μl for neurons in 96-well plates; 125 μl for neurons in 24-well plates) of old medium was discarded. Then, the same volume (50 μl for neurons in 96-well plates; 125 μl for neurons in 24-well plates) of prewarned fresh medium containing 10 μM HN and 50 μM Aβ (Aβ was directly resolved) was added to the culture. The Aβ peptides used at 25 μM to induce neurotoxicity formed aggregation in the medium during the cell culture at 37° C. for 72 hr. as described. The WST-8 cell viability assay was performed, using Cell Counting Kit-8 (Wako Pure Chemical Industries, Osaka, Japan), as described previously.
(§3) Calcein assay was performed with Calcein-AM {3′,6′-di-(O-acetyl)-2′,7′-bis [N,N-bis(carboxymethyl)aminomethyl] fluorescein, tetraacetoxymethyl ester; Dojindo}, as described previously. These assays were simultaneously performed in the experiments with neurons seeded in 96-well plates, as follows. Seventy-two hours after Aβ treatment, cells were added with the mixture of 10 μl WST-8 solution and 1 μl of 600 μM Calcein-AM. After 2 hr incubation in a CO2 incubator at 37° C., WST-8 absorbance was measured as OD450. After exchanging the medium to PBS to lower the background, Calcein-specific fluorescence (ex=485 nm, em=535 nm) was observed by fluorescence microscopy or measured by a spectrofluorometer (Wallac1420 ARVOsx Multi Label Counter). […]

[4] = tested on: primary cultured neurons treated with 25 μM Aβ1-43; type: cell-based; conditions: for concentration of full neuroprotection against Aβ1-43 / suppression of Aβ neurotoxicity in the presence of 100 μM EFLIVIKS: 25 μM Aβ1-43; for suppression of Aβ neurotoxicity in the presence of 100 μM EFLIVIKS: EF-HN and EF-HNG at 10 μM, WST-8 and Calcein assays; for potency of neuroprotection against Aβ relative to HN: times as high as / higher than authentic HN
Experimental: (§4) In one assay, transfection with V642I-APP causes cell death in F11 neuronal hybrid cells. In the other, treatment with Aβ peptides causes cell death in primary cultured cortical neurons.
as §2
Calcein assay was performed with Calcein-AM {3′,6′-di-(O-acetyl)-2′,7′-bis [N,N-bis(carboxymethyl)aminomethyl] fluorescein, tetraacetoxymethyl ester; Dojindo}, as described previously. These assays were simultaneously performed in the experiments with neurons seeded in 96-well plates, as follows. Seventy-two hours after Aβ treatment, cells were added with the mixture of 10 μl WST-8 solution and 1 μl of 600 μM Calcein-AM. After 2 hr incubation in a CO2 incubator at 37° C., WST-8 absorbance was measured as OD450. After exchanging the medium to PBS to lower the background, Calcein-specific fluorescence (ex=485 nm, em=535 nm) was observed by fluorescence microscopy or measured by a spectrofluorometer (Wallac1420 ARVOsx Multi Label Counter). Most cell viability data using Calcein assay and WST-8 assay were obtained from neurons seeded at 5×10^4 cells/well in 96-well plates (high-density neurons) and confirmed by both assays with the cells seeded at 2.5×10^4 cells/well (low-density neurons).
Some experiments for Calcein assay were performed with neurons seeded in 24-well plates. […] In most experiments using primary neurons, four independent experiments were performed and the means? S. D. of the results were discussed.

[5] = Apparent stability of peptides in the culture medium; type: physicochemical; conditions: 72-hr incubation of 10 μM peptides in the cultured medium; data not shown
Excerpt: The Ser^7 residue plays a role different from that of Ser^14. S7A substitution nullified the action of HN, while Ser^7 racemation had no influence. […] Given the fact that EFLIVIKS or EFLIVKS is the established amino acid sequence to form a dimer and that EFLIVIKS alone had no cytoprotective action, it is most likely that Ser^7 is essential for HN to self-dimerize and that self-dimerization of HN is essential for the action of HN. […] This level of stability alterations could not account for the drastic potentiation of the rescue action by the fusion with EFLIVIKS.

[6] = tested on: F11 cells transfected with V642I-APP cDNA; assay: F11 cell death by V642I-APP transfection (Trypan blue exclusion); type: cell-based; conditions: times higher than that of HN
Excerpt: as §4, §1

Aβ and V642I-APP = type: cell-based; conditions: Table 5, marked **
Excerpt: as §1, §2, §3

[7] = tested on: Aβ and four FAD genes (V642I-APP, NL-APP, M146L-PS1, and N141I-PS2); conditions: cited from earlier work

## CC[C@H](C)[C@H](NC(=O)[C@H](CCC(=O)O)NC(=O)[C@@H](CO)NC(=O)[C@@H](NC(=O)[C@H](CC(C)C)NC(=O)[C@H](CC(C)C)NC(=O)[C@H](CC(C)C)NC(=O)[C@H](CC(C)C)NC(=O)[C@H](CS)NC(=O)[C@H](CO)NC(=O)[C@H](C)NC(=O)CNC(=O)[C@H](C)NC(=O)[C@@H]1CCCN1)[C@@H](C)O)C(=O)N[C@@H](CC(=O)O)C(=O)N[C@@H](CC(C)C)C(=O)N1CCC[C@H]1C(=O)O [AGA-(D-Ser14)HN17, PAGASCLLLLT(D-Ser)EIDLP] (H-PAGASCLLLLT[dS]EIDLP-OH; N-terminus and C-terminus assumed)
[1]
  CMV-promoter-driven expression of V642I-APP, NL-APP, M146L-PS1, or N141I-PS2 holoprotein: did not suppress
[2]
  concentration of full cytoprotection against FAD genes: 100 pM
  IC50: ~0.01 nM
[3]
  IC50: 0.01 to 0.1 nM
  action potency compared with another peptide (in words): as potent as AGAD-Ser^14)HN
  Full protection (minimal concentration that exerted full cytoprotection): ˜100 pM

## CC[C@H](C)[C@H](NC(=O)[C@H](CCC(=O)O)NC(=O)[C@@H](CO)NC(=O)[C@@H](NC(=O)[C@H](CC(C)C)NC(=O)[C@H](CC(C)C)NC(=O)[C@H](CC(C)C)NC(=O)[C@H](CC(C)C)NC(=O)[C@H](CS)NC(=O)[C@H](CO)NC(=O)[C@H](C)NC(=O)CNC(=O)[C@H](C)NC(=O)[C@@H]1CCCN1C(=O)[C@H](C)NC(=O)[C@@H](N)CCSC)[C@@H](C)O)C(=O)N[C@@H](CC(=O)O)C(=O)N[C@@H](CC(C)C)C(=O)N1CCC[C@H]1C(=O)N[C@H](C(=O)N[C@@H](CCCCN)C(=O)N[C@@H](CCCNC(=N)N)C(=O)N[C@@H](CCCNC(=N)N)C(=O)N[C@@H](C)C(=O)O)C(C)C [AGA-(D-Ser14)HN, MAPAGASCLLLLT(D-Ser)EIDLPVKRRA] (H-MAPAGASCLLLLT[dS]EIDLPVKRRA-OH; N-terminus and C-terminus assumed)
[1]
  CMV-promoter-driven expression of V642I-APP, NL-APP, M146L-PS1, or N141I-PS2 holoprotein: not affected
[3]
  concentration of full cytoprotection: 100 pM
  Full protection (minimal concentration that exerted full cytoprotection): 100 to 300 pM

## EFLIVIKSMAPAGASCLLLLTGEIDLPVKRRA [EF-AGA-HNG]
[1]
  CMV-promoter-driven expression of V642I-APP, NL-APP, M146L-PS1, or N141I-PS2 holoprotein: little or only marginal alteration
[2]
  concentration of full cytoprotection against FAD genes: 10 pM
[4]
  IC50: ~0.001 nM
  concentration of full neuroprotection against Aβ1-43: 0.01 nM
[3]
  Full protection (minimal concentration that exerted full cytoprotection): ˜10 pM

## EFLIVIKSMAPRGFSCLLLLTGEIDLPVKRRA [EF-HNG]
[2]
  IC50: ~0.01 nM
[5]
  amount of peptide relative to the amount at time zero: virtually unaltered
[4]
  concentration of full neuroprotection against Aβ1-43: 1 nM
  suppression of Aβ neurotoxicity in the presence of 100 μM EFLIVIKS: could fully suppress Aβ neurotoxicity
[4]; both Calcein fluorescence and WST-8 absorbance assays, read-out: IC50 of cytoprotection against Aβ1-43
  IC50: ~0.1 nM
[3]
  IC50: 0.01 to 0.1 nM
  Full protection (minimal concentration that exerted full cytoprotection): ˜1 nM

## EFLIVIKSMAPRGFSCLLLLTSEIDLPVKRRA [EF-HN]
[5]
  amount of peptide relative to the amount at time zero: virtually unaltered
[6]
  potency of cytoprotection against V642I-APP relative to HN: about 100 times
[4]
  suppression of Aβ neurotoxicity in the presence of 100 μM EFLIVIKS: could fully suppress Aβ neurotoxicity
  potency of neuroprotection against Aβ relative to HN: about 100 times
Aβ and V642I-APP
  Full protection (minimal concentration that exerted full cytoprotection): ˜100 nM

## MAPAGASCLLLLTGEIDLPVKRRA [AGA-HNG, reference compound]
[1]
  CMV-promoter-driven expression of V642I-APP, NL-APP, M146L-PS1, or N141I-PS2 holoprotein: little or only marginal alteration
[7]; previously reported [16]
  augmentation of the potency of HNG by Ala substitution at both Arg4 and Phe6: 3-10 times
  concentration of full neuroprotection: 100 to 300 pM
[3]
  concentration of full cytoprotection: 100 to 300 pM
  Full protection (minimal concentration that exerted full cytoprotection): 100 to 300 pM

## MAPRGF(D-Ser)CLLLLT(D-Ser)EIDLPVKRRA (MAPRGF[dS]CLLLLT[dS]EIDLPVKRRA) [D-Ser7/14 HN]
[2]; V642I-APP
  cytoprotective action against FAD genes (in words): virtually identical to those of (D-Ser^14)HN
[3]
  Full protection (minimal concentration that exerted full cytoprotection): ˜10 nM

## MAPRGFSCLLLLT(D-S)EIDLPVKRRA [D-Ser14 HN]
[1]
  CMV-promoter-driven expression of V642I-APP, NL-APP, M146L-PS1, or N141I-PS2 holoprotein: did not suppress
[2]; V642I-APP
  concentration of full suppression of cell death by FAD mutants: 10 nM
  cytoprotective action against FAD genes (in words): virtually identical to that of HNG
[4]
  concentration of full neuroprotection against Aβ1-43: 1 to 10 nM
  potency of neuroprotection against Aβ relative to HN: 100-1000 times
[3]
  Full protection (minimal concentration that exerted full cytoprotection): ˜10 nM

## PRGFSCLLLLTSEIDLP [HN17, Pro3-Pro19 region of HN]
[7]; as disclosed in [16]
  cytoprotection potency compared with authentic HN (in words): as potent in cytoprotection as authentic HN
